“And” between values parts separate entries of the source, which are not always exact repeats. Identical values can stand only once. Like-named read-outs stand apart in the source and are kept apart here.
Tests used:
P. mirabilis 1285 [1] = assay type: cell-based, Proteus mirabilis; conditions: no polymer (None), Table 12
Description: (§1) MICs were determined by microdilution susceptibility testing in 96-well plates (by Nunc) using inocula of 10^5 bacteria per ml. Cell populations were evaluated by optical density measurements at 620 nm and were calibrated against a set of standards. Hundred (100) μl of a bacterial suspension were added to 100 μl of culture medium (control) or to 100 μl of culture medium containing various polymer concentrations in 2-fold serial dilutions. Inhibition of proliferation was determined by optical density measurements at 620 nm after an incubation period of 24 hours at 37° C.
100 μl of a bacterial suspension were added to 100 μl of culture medium (control) or to 100 μl of culture medium containing various antibiotic and C14(9-ene)KKNC12KNH2 (SEQ ID NO: 5) concentrations in 2-fold serial dilutions. Inhibition of proliferation was determined by optical density measurements at 620 nm after an incubation period of 24 hours at 37° C.

P. aeruginosa 8732 = assay: Antibiotic MIC by microdilution with or without sub-MIC polymer; assay type: cell-based, Pseudomonas aeruginosa; conditions: P. aeruginosa 8732; no polymer (None), Table 10
Description: as §1
Inhibition of proliferation was determined by optical density measurements at 620 nm after an incubation period of 24 hours at 37° C.

P. mirabilis 1285 [2] = assay type: cell-based, Proteus mirabilis
S. aureus 15819 = assay: Antibiotic MIC by microdilution with or without sub-MIC polymer; assay type: cell-based, Staphylococcus aureus
MRSA 15852 = assay type: cell-based, Staphylococcus aureus; conditions: S. aureus 15852
Description: The fractionary inhibitory (FIC) concentration index for combinations of two antimicrobial agents was calculated as follows: FIC index=FICA+FICB=A/MICA+B/MICB where A and B are the MIC values of agent A and agent B in the combination, MICA and MICB are the MICs of agent A and agent B alone, and FICA and FICB are the FICs of agent A and agent B.
The FIC indexes were interpreted as follows: less than 0.5 indicates a clear re-sensitizing effect; from 0.5 to 4 indicates a marginal or null re-sensitizing effect; and over 4 indicates antagonism.

O=C(O)c1cn(C2CC2)c2cc(N3CCNCC3)c(F)cc2c1=O [Ciprofloxacin, ciprofloxacin]
Antibiotic MIC (P. mirabilis 1285 [1]): 32 µg/mL | Antibiotic MIC (P. aeruginosa 8732): <0.03 µg/mL | Antibiotic MIC (P. mirabilis 1285 [2]; +¼ MIC (1.6 μM) C12K(KNC12K)2NH2): 32 µg/mL | Antibiotic MIC (P. mirabilis 1285 [2]; +½ MIC (3.12 μM) C12K(KNC12K)2NH2): 8 µg/mL | Antibiotic MIC (P. mirabilis 1285 [2]; +⅓ MIC (2.1 μM) C12K(KNC12K)2NH2): 16 µg/mL | Antibiotic MIC (S. aureus 15819): 0.125 µg/mL and 0.125 to 0.25 µg/mL | Antibiotic MIC (S. aureus 15819; S. aureus 15819, +¼ MIC (1.6 μM) C12K(KNC12K)3NH2): 0.125 µg/mL | Antibiotic MIC (S. aureus 15819; S. aureus 15819, +½ MIC (3.12 μM) C12K(KNC12K)3NH2): 0.06 µg/mL | Antibiotic MIC (S. aureus 15819; S. aureus 15819, +⅓ MIC (2.1 μM) C12K(KNC12K)3NH2): 0.125 µg/mL | Antibiotic MIC (S. aureus 15819; S. aureus 15819, no polymer (None), Table 8): 0.125 to 0.25 µg/mL | Antibiotic MIC (S. aureus 15819; S. aureus 15819, no polymer (None), Table 11): 0.125 to 0.25 µg/mL | Antibiotic MIC (S. aureus 15819; S. aureus 15819, no polymer (None), Table 13): 0.25 µg/mL | Antibiotic MIC (MRSA 15852; +¼ MIC (1.6 μM) C12(5-ene)KKNC12KNH2): 16 µg/mL | Antibiotic MIC (MRSA 15852; +¼ MIC (1.6 μM) C12KKNC12KNH2): 32 µg/mL | Antibiotic MIC (MRSA 15852; +½ MIC (3.12 μM) C12(5-ene)KKNC12KNH2): 16 µg/mL | Antibiotic MIC (MRSA 15852; +½ MIC (3.12 μM) C12KKNC12KNH2): 32 µg/mL | Antibiotic MIC (MRSA 15852; +⅓ MIC (2.1 μM) C12(5-ene)KKNC12KNH2): 16 µg/mL | Antibiotic MIC (MRSA 15852; +⅓ MIC (2.1 μM) C12KKNC12KNH2): 32 µg/mL | Antibiotic MIC (MRSA 15852; no polymer (None), Table 8): 16 µg/mL | Antibiotic MIC (MRSA 15852; no polymer (None), Table 11): 32 µg/mL

Source: patent US20180153995A1, “USE OF ANTIMICROBIAL POLYMERS FOR RE-SENSITIZATION OF MICROORGANISMS UPON EMERGENCE OF RESISTANCE TO ANTI-MICROBIAL AGENTS” (Technion Research & Development Foundation Limited, priority 2008, published 2018)
